In ChEMBL document CHEMBL5579841, “Structure-based development of novel substrate-type G9a inhibitors as epigenetic modulators for sickle cell disease treatment” (Bioorg Med Chem Lett, 2024):
Values after ≈ are worked out from the molar mass of the structure shown. Active and inactive are the calls of the source. The rule behind the calls is not given here.

How the values were obtained:
[1] = Aqueous solubility of compound at pH 7.4; format: physicochemical
[2] = molecular target: T1, Histone-lysine N-methyltransferase EHMT2 (Homo sapiens, UniProt Q96KQ7); assay: Inhibition of G9a (unknown origin)
T1 sequence (Q96KQ7 whole entry): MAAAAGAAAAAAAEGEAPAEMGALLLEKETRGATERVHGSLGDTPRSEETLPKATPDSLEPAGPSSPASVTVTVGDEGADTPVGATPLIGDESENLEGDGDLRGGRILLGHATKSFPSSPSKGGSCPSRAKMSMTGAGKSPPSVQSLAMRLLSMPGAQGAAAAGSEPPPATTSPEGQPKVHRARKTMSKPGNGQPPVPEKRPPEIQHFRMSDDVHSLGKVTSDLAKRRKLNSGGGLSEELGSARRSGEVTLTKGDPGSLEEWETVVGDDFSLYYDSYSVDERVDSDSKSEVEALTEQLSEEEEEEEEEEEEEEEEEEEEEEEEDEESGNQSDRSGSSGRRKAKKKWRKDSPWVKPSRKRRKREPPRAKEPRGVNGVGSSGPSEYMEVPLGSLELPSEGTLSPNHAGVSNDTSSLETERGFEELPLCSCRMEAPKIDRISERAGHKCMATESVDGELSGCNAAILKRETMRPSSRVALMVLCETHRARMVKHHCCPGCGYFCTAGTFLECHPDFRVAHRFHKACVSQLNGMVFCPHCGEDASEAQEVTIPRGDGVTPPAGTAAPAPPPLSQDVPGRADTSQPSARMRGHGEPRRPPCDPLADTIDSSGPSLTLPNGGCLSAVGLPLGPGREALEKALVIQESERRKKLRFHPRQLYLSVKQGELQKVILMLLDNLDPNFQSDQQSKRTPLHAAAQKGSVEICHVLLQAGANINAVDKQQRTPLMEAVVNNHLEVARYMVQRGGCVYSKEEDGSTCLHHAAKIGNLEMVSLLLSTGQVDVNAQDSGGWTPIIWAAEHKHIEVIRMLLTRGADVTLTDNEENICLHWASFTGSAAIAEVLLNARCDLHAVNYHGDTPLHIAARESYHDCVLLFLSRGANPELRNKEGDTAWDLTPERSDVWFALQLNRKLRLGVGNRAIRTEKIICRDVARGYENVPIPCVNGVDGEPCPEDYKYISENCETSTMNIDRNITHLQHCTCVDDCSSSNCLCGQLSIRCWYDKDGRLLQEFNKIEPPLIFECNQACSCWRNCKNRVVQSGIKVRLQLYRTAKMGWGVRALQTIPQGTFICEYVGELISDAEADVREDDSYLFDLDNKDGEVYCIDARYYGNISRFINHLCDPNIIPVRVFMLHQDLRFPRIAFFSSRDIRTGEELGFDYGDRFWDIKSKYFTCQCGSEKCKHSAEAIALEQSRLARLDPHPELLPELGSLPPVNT

[3] = Permeability of compound by PAMPA; format: ADME; details: read-out: permeability
HUDEP-2 = assay: Induction of gamma-globin mRNA expression in human HUDEP-2 cells assessed as expression shift from adult-type beta-globin to fetal-type gamma-globin upto 1 uM by […] analysis; format: functional, cell-based
[4] = Metabolic stability in human liver microsomes assessed as compound remaining measured after 30 mins; format: ADME, Microsome; details: read-out: Stability
[5] = molecular target: T2, Histone-lysine N-methyltransferase EHMT2 (Homo sapiens) (UniProt Q96KQ7); assay: Binding affinity to G9a (unknown origin) assessed as binding constant K(off) by SPR analysis
T2 sequence (whole entry): T1 sequence (Q96KQ7 whole entry)

[6] = molecular target: T2, Histone-lysine N-methyltransferase EHMT2 (Homo sapiens); assay: Binding affinity to G9a (unknown origin) assessed as binding constant K(on) by SPR analysis
[7] = Metabolic stability in mouse liver microsomes assessed as compound remaining measured after 30 mins; format: ADME, Microsome; details: read-out: Stability
[8] = Metabolic stability in human liver microsomes assessed as compound remaining measured after 60 mins; format: ADME, Microsome; details: read-out: Stability
[9] = Metabolic stability in mouse liver microsomes assessed as compound remaining measured after 60 mins; format: ADME, Microsome; details: read-out: Stability
[10] = molecular target: T1, Histone-lysine N-methyltransferase EHMT2; assay: Binding affinity to G9a (unknown origin) assessed as dissociation constant by SPR analysis

Structure (SMILES) | solubility [1] | IC50 [2] | Papp [3] | also measured
CCCCC(NC(=O)c1[nH]c2c(c1C)C(=O)CC(C)(C)C2)C(=O)Nc1ccc(CCN2CCC(F)(F)CC2)cc1 (racemic) | 2.3 µM (≈ 1.28 µg/mL) | 1600 nM |  | 
CCCCC(NC(=O)c1[nH]c2c(c1C)C(=O)CC(C)(C)C2)C(=O)Nc1ccccc1 (racemic) | 20 µM (≈ 8.19 µg/mL) | 1300 nM |  | 
CCCCC(NC(=O)c1[nH]c2c(c1C)C(=O)CC(C)(C)C2)C(=O)Nc1ccc(CCN2CCS(=O)(=O)CC2)cc1 (racemic) | 37 µM (≈ 21.1 µg/mL) | 2800 nM | 2.12 ×10⁻⁶ cm/s | 
CCCCC(NC(=O)c1[nH]c2c(c1C)C(=O)CC(C)(C)C2)C(=O)Nc1ccc(CN2CCCC2)cc1 (racemic) | 189 µM (≈ 93.1 µg/mL) | 44 nM | 12.7 ×10⁻⁶ cm/s | 
CCCCC(NC(=O)c1[nH]c2c(c1C)C(=O)CC(C)(C)C2)C(=O)Nc1ccc(CCN2CCCCC2)cc1 (racemic) | 197 µM (≈ 103 µg/mL) | 42 nM | 6.3 ×10⁻⁶ cm/s | 
CCCCC(NC(=O)c1[nH]c2c(c1C)C(=O)CC(C)(C)C2)C(=O)Nc1cccnc1 (racemic) | > 200 µM |  | 29 ×10⁻⁶ cm/s | 
CCCCC(NC(=O)c1[nH]c2c(c1C)C(=O)CC(C)(C)C2)C(=O)Nc1ccc(OC2CCN(C)CC2)nc1 (racemic) | > 200 µM | 65 nM | 4.9 ×10⁻⁶ cm/s | 
CCCCC(NC(=O)c1[nH]c2c(c1C)C(=O)CC(C)(C)C2)C(=O)Nc1ccc(OCCNC)nc1 (racemic) | > 200 µM | 59 nM | 0.07 ×10⁻⁶ cm/s | 
CCCC[C@H](NC(=O)c1[nH]c2c(c1C)C(=O)CC(C)(C)C2)C(=O)Nc1ccc(OC2CCN(C)CC2)cc1 | 200 µM (≈ 105 µg/mL) | 24 nM | 9.3 ×10⁻⁶ cm/s | Activity (HUDEP-2): Active; remaining at 0.5 h [4]: 57%; K [5]: 0.013 s⁻¹; K [6]: 110000 M⁻¹ s⁻¹; remaining at 0.5 h [7]: 72%; remaining at 1 h [8]: 37%; remaining at 1 h [9]: 58%; Kd [10]: 120 nM
CCCC[C@H](NC(=O)c1[nH]c2c(c1C)C(=O)CC(C)(C)C2)C(=O)Nc1ccccc1 | 7 µM (≈ 2.87 µg/mL) |  | 35.9 ×10⁻⁶ cm/s | remaining at 0.5 h [4]: 22%; remaining at 0.5 h [7]: 11%; remaining at 1 h [8]: 10%; remaining at 1 h [9]: 1.1%
CCCCC(NC(=O)c1[nH]c2c(c1C)C(=O)CC(C)(C)C2)C(=O)Nc1ccc(OC2CCN(C)CC2)cc1 (racemic) | 192 µM (≈ 100 µg/mL) | 22 nM | 5.9 ×10⁻⁶ cm/s | 
CCCC[C@H](NC(=O)c1[nH]c2c(c1C)C(=O)CC(C)(C)C2)C(=O)NCc1ccc(CN(C)C)cc1 | 201 µM (≈ 96.6 µg/mL) | 9 nM | 7.2 ×10⁻⁶ cm/s | remaining at 0.5 h [4]: 52%; remaining at 0.5 h [7]: 78%; remaining at 1 h [8]: 30%; remaining at 1 h [9]: 65%
Cc1c(C(=O)N[C@@H](CCC2CC2)C(=O)Nc2ccc(C#N)cc2)[nH]c2c1C(=O)CC(C)(C)C2 |  |  |  | K [5]: 0.012 s⁻¹; K [6]: 16000 M⁻¹ s⁻¹; Kd [10]: 750 nM
CCCCC(NC(=O)c1[nH]c2c(c1C)C(=O)CC(C)(C)C2)C(=O)Nc1ccc(OCCN(C)C)nc1 (racemic) | > 200 µM | 110 nM | 3.6 ×10⁻⁶ cm/s | 
CCCCC(NC(=O)c1[nH]c2c(c1C)C(=O)CC(C)(C)C2)C(=O)NCc1ccccc1 (racemic) | 2.5 µM (≈ 1.06 µg/mL) | 330 nM |  | 
CCCCC(NC(=O)c1[nH]c2c(c1C)C(=O)CC(C)(C)C2)C(=O)Nc1ccc(CCN2CCOCC2)cc1 (racemic) | 14 µM (≈ 7.32 µg/mL) | 1000 nM |  | 
CCCCC(NC(=O)c1[nH]c2c(c1C)C(=O)CC(C)(C)C2)C(=O)Nc1ccc(CN2CCC(F)(F)CC2)cc1 (racemic) | 5.7 µM (≈ 3.09 µg/mL) | 930 nM |  | 
CCCC[C@H](NC(=O)c1[nH]c2c(c1C)C(=O)CC(C)(C)C2)C(=O)Nc1ccc(OC2CCN(C)CC2)nc1 | 200 µM (≈ 105 µg/mL) | 44 nM | 8.1 ×10⁻⁶ cm/s | remaining at 0.5 h [4]: 80%; K [5]: 0.013 s⁻¹; K [6]: 79000 M⁻¹ s⁻¹; remaining at 0.5 h [7]: 72%; remaining at 1 h [8]: 62%; remaining at 1 h [9]: 53%; Kd [10]: 170 nM
CCCCC(NC(=O)c1[nH]c2c(c1C)C(=O)CC(C)(C)C2)C(=O)NCc1ccc(CN(C)C)cc1 (racemic) | > 200 µM | 12 nM | 9.5 ×10⁻⁶ cm/s | 
CCCCC(NC(=O)c1[nH]c2c(c1C)C(=O)CC(C)(C)C2)C(=O)Nc1ccc(CN(C)C)cc1 (racemic) |  | 42 nM |  | 
CCCCC(NC(=O)c1[nH]c2c(c1C)C(=O)CC(C)(C)C2)C(=O)Nc1ccc(OCCN)nc1 (racemic) | > 200 µM | 74 nM | 0.4 ×10⁻⁶ cm/s | 
